Laboratory results reported in PubChem BioAssay (NCI).
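Growth conditions: 96-well plates. Treatment: test compound, 48 hours, 5 concentrations. Analysis: linear interpolation between bracketing concentrations; unreached endpoints set to highest concentration. At the TGI there is no net growth.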

Tests used:
Test in all cases: DTP human tumour cell line panel, 48 h
MCF7 breast = system: MCF7 breast
NCI-H460 lung = system: NCI-H460 lung
K-562 leukemia = system: K-562 leukemia
HL-60(TB) leukemia = system: HL-60(TB) leukemia
SNB-19 CNS = system: SNB-19 CNS
DU-145 prostate = system: DU-145 prostate
RXF 393 renal = system: RXF 393 renal
UACC-62 melanoma = system: UACC-62 melanoma
NCI-H226 lung = system: NCI-H226 lung
MDA-MB-435 = system: MDA-MB-435
NCI-H23 lung = system: NCI-H23 lung
SF-539 CNS = system: SF-539 CNS

| SMILES | TGI (MCF7 breast) [µM] | TGI (NCI-H460 lung) [µM] | TGI (K-562 leukemia) [µM] | TGI (HL-60(TB) leukemia) [µM] | TGI (SNB-19 CNS) [µM] | TGI (DU-145 prostate) [µM] | TGI (RXF 393 renal) [µM] | TGI (UACC-62 melanoma) [µM] | TGI (NCI-H226 lung) [µM] | TGI (MDA-MB-435) [µM] | TGI (NCI-H23 lung) [µM] | TGI (SF-539 CNS) [µM] |
| --- | --- | --- | --- | --- | --- | --- | --- | --- | --- | --- | --- | --- |
| O=C1O[C@H]2[C@H](OC(=O)c3cc(O)c(O)c(O)c3)[C@@H](OC(=O)c3cc(O)c(O)c4c3[C@@H]3C1=CC(=O)C(O)(O)C3(O)O4)[C@H](OC(=O)c1cc(O)c(O)c(O)c1)O[C@@H]2COC(=O)c1cc(O)c(O)c(O)c1 (stereo partly drawn) | > 100 | > 100 | > 100 | > 100 | > 100 | > 100 | > 100 | > 100 | > 100 | > 100 | > 100 |  |
| Nc1nc(NCCCO)cc(=O)[nH]1 | > 100 | > 100 | > 100 | > 100 | > 100 | > 100 | > 100 | > 100 | > 100 | > 100 | > 100 |  |
| CC(=O)NC(NCCN)(c1ccccc1)c1ccccc1 | > 100 | > 100 | > 100 | > 100 | > 100 | > 100 | > 100 |  | > 100 | > 100 | > 100 | > 100 |
| O=C1CC(CC(=O)c2ccc(Br)cc2)C(=O)/C1=C(/O)c1ccc(Br)cc1 (stereo not drawn) | > 100 | > 100 | > 100 | > 100 | > 100 | > 100 | > 100 | > 100 | > 100 | > 100 | > 100 | > 100 |
| COc1c(C(=O)NCCN(CCNC(=O)c2cccc(-c3cccc(C(=O)N(C)C)c3OC)c2OC)CCNC(=O)c2cccc(-c3cccc(C(=O)N(C)C)c3OC)c2OC)cccc1-c1cccc(C(=O)N(C)C)c1OC | 78 | > 100 | 65 | 69.5 | > 100 | > 100 | 63 | 67.2 | 36.6 | 39.8 | > 100 | 36.2 |
| COC(=O)/C=C1/OC(c2ccccc2)=C(C)C1=O | 16.6 | 39.2 | 15 | 4.97 | 30.5 | 33.6 | 22.5 | 11.5 | 38.6 | 27.5 | 43.6 | 32.2 |
| CC(=O)OCC1OC(n2c3c(c(-c4ccc(Cl)cc4)c(C#N)c2=S)CCCC3)C(OC(C)=O)C(OC(C)=O)C1OC(C)=O (stereo not drawn) | > 100 | > 100 | > 100 | > 100 | > 100 | > 100 | 84.4 | 75.1 | > 100 | > 100 | > 100 | > 100 |
| COc1ccc2c(c1)/C(=C\c1c(Cl)[nH]c3ccccc13)C(=O)N2 | 13.7 | 14.5 | 12.2 | 10.8 | 19.3 | 56.7 | 13.4 | 20 | 70.8 | 3.82 | 25 | 12.5 |
| CN(C)c1c(C2OC(CO)C(O)C2O)c(=O)c1=O (stereo not drawn) | > 100 | > 100 | > 100 |  | > 100 | > 100 | > 100 | > 100 | > 100 | > 100 | > 100 | > 100 |
| Cc1cc2nc3ccccc3n2c2nc(N)ccc12 | > 100 | 27.5 | > 100 | > 100 | > 100 | > 100 | > 100 | > 100 | 84.9 | > 100 | > 100 | 51.6 |
| O=C(CSCC(=O)N/N=C\c1cccc([N+](=O)[O-])c1)N/N=C\c1cccc([N+](=O)[O-])c1 | > 100 | > 100 |  | > 100 | > 100 | > 100 | > 100 | > 100 | > 100 | > 100 | 31.1 | 84.7 |
| Nc1ncnc2c1ncn2C1CCC(CP(=O)(O)O)C1 (stereo not drawn) | > 100 | > 100 |  | > 100 | > 100 | > 100 | > 100 | > 100 | > 100 | > 100 | > 100 | > 100 |
| O=[S@]1c2ccc3ccccc3c2N[C@@H]2[C@H]1[C@H]1C=C[C@@H]2C1 | > 100 | > 100 | > 100 | 63 | > 100 | > 100 | 95.1 | > 100 | > 100 | 99.6 | > 100 | > 100 |
| COC(=O)c1cc(NC(=O)Cc2c[nH]c3ccccc23)cn1C | > 100 | > 100 | > 100 | > 100 | > 100 | > 100 | > 100 | > 100 | > 100 | > 100 | > 100 | > 100 |
| O=C(c1ccccc1)N1CCC(CC2(c3cc4ccccc4[nH]3)OCCO2)CC1 | 43.9 | > 100 | 37.6 |  | > 100 | > 100 | > 100 | 39.4 | > 100 | 51 | > 100 | > 100 |
| O=C1Nc2nccnc2C(=O)N2CCC[C@@H]12 | > 100 | > 100 | > 100 | > 100 | > 100 | > 100 | > 100 | > 100 | > 100 | > 100 | > 100 | > 100 |
| CC1=CC[C@@]2(C)CC[C@](O)(C(C)C)C2C(OC(=O)c2ccccc2)C1 (stereo partly drawn) | 34.4 | 40.6 | 47.8 | 82.2 | 40.5 | 32.5 | 27.3 |  | 45.3 | 93.2 | 38.9 | 37.4 |
| O=C1/C(=C/c2ccccc2[N+](=O)[O-])N=C(c2ccccc2)N1c1nc2ccccc2s1 | 90.4 | > 100 | 44.7 | 57.1 | > 100 | 47.6 | 33.7 |  | > 100 | 54.1 | 41.4 | 81.3 |
| Cc1c(N=C/C=C/c2ccccc2)c(=O)n(-c2ccccc2)n1C | 60.5 | > 100 |  | 48.2 | > 100 | > 100 | > 100 | 36 | 38 | > 100 | 69.8 | 64.4 |
